The values below come from ChEMBL document CHEMBL4425144, “Discovery and Structural Optimization of N5-Substituted 6,7-Dioxo-6,7-dihydropteridines as Potent and Selective Epidermal Growth Factor Receptor (EGFR) Inhibitors against L858R/T790M Resistance Mutation” (J Med Chem, 2016).

The nature of series [1]: Half life in ICR mouse at 10 mg/kg, po by LC-MS/MS method. Format: ADME, organism-based. The note with it: in vivo.
The nature of series [2]: Oral bioavailability in ICR mouse at 10 mg/kg by LC-MS/MS method. Format: ADME, organism-based. The note with it: in vivo.
In series [3] the target is T1, Mitogen-activated protein kinase kinase kinase 6 (Homo sapiens) (UniProt O95382).
T1 sequence (whole entry): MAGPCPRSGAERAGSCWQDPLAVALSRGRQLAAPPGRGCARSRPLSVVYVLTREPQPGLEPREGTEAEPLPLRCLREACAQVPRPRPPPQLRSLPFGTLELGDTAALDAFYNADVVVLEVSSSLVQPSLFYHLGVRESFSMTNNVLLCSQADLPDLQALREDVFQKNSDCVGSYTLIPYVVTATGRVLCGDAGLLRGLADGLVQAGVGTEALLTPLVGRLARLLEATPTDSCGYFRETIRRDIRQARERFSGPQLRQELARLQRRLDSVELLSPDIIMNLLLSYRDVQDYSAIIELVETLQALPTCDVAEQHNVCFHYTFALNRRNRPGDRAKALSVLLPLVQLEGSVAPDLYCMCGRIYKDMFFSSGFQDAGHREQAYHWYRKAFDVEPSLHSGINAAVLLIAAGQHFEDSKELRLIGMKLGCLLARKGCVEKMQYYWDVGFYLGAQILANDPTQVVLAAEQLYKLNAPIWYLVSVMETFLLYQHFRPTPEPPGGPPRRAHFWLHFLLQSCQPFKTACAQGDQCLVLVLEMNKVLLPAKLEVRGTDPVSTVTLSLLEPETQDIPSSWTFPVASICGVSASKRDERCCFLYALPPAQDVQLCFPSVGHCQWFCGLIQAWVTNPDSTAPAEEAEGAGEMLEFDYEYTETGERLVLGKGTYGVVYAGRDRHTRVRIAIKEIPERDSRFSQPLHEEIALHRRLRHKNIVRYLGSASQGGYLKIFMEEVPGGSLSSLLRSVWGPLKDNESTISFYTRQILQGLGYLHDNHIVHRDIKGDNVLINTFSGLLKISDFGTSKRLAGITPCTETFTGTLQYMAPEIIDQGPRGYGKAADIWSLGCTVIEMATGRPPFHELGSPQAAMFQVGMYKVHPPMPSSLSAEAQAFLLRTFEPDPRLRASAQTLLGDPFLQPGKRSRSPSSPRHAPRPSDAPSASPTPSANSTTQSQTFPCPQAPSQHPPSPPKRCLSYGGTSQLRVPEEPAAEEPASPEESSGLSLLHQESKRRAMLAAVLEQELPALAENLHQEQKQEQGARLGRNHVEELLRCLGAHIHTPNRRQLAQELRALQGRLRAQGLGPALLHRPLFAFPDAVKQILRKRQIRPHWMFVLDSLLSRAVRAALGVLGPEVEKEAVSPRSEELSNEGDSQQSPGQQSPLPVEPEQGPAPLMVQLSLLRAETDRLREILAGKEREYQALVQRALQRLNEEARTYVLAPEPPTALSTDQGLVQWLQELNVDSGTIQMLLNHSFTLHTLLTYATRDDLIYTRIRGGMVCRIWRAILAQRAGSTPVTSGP
In words: Inhibition of human ASK2 expressed in mammalian system assessed as remaining enzyme activity at 1000 nM relative to untreated control.

Series [4] concerns the target Calcium/calmodulin-dependent protein kinase type 1 (Homo sapiens) (UniProt Q14012). In words: Inhibition of human CAMK1 expressed in bacterial system assessed as remaining enzyme activity at 1000 nM relative to untreated control.
Series [5] can be described thus: Dissociation constant, pKa of the compound by Sirius T3 based assay. Format: physicochemical.
The nature of series [6]: Toxicity in human NCI-H1975 cells xenografted BALB/c mouse assessed as body weight loss at 50 mg/kg, po qd for 14 consecutive days. Format: organism-based. The settings on record: in vivo. For orientation: Xenograft models place foreign cells or tissue in a host animal.
The nature of series [7]: Half life in ICR mouse at 1 mg/kg, iv by LC-MS/MS method. Format: ADME, organism-based. The note with it: in vivo.
The test system of series [8] is A-431. In words: Antitumor activity against human A431 cells xenografted in BALB/c mouse assessed as inhibition of tumor growth at 50 mg/kg, po qd for 14 consecutive days. Format: functional. The note with it: A-431, po, read-out: TGI.
Series [9] has as its system A-431. In words: Antiproliferative activity against human A431 cells incubated for 72 hrs by SRB assay. Format: functional, cell-based. The note with it: A-431, 72 h.
The test system of a further series is Mus musculus. In words: Inhibition of EGFR kinase domain L858R/T790M mutant phosphorylation in human NCI-H1975 cells xenografted BALB/c mouse at 50 mg/kg, po qd for 14 consecutive days by Western blot method. Format: functional, organism-based.
A short description of series [10]: AUC (0 to t) in ICR mouse at 10 mg/kg, po by LC-MS/MS method. The settings on record: in vivo. Format: ADME, organism-based.
Series [11] can be described thus: Thermodynamic solubility of the compound in 0.1M PBS buffer at pH 7.4 by UV-visible spectrophotometry. Format: physicochemical. The settings on record: read-out: Therm_solubility.
The target of series [12] is Receptor tyrosine-protein kinase erbB-4 (Homo sapiens) (UniProt Q15303). In words: Inhibition of human ERBB4 expressed in bacterial system assessed as remaining enzyme activity at 1000 nM relative to untreated control.
Series [13] has as its target T2, Tyrosine-protein kinase TXK (Homo sapiens) (UniProt P42681).
T2 sequence (whole entry): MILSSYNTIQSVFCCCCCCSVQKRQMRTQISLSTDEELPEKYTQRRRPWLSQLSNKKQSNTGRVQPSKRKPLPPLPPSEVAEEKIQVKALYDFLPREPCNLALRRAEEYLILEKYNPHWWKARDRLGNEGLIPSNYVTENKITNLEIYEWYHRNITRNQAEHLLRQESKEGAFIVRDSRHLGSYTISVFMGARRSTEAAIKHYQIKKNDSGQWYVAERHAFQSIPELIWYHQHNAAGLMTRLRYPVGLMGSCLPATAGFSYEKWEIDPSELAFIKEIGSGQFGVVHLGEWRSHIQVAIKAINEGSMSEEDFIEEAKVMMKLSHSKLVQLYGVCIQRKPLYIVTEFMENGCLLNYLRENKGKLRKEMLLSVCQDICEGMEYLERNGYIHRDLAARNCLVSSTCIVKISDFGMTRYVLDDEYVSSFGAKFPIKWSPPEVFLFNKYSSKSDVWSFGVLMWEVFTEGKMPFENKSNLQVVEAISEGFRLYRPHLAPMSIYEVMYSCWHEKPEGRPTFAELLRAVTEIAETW
As to the kind of experiment: Inhibition of human TXK expressed in bacterial system assessed as remaining enzyme activity at 1000 nM relative to untreated control.

Series [14] relates to NCI-H1975. In words: Antitumor activity against human NCI-H1975 cells xenografted in BALB/c mouse assessed as inhibition of tumor growth at 50 mg/kg, po qd for 14 consecutive days. Format: functional. The settings on record: read-out: TGI.
The subject of series [15] is NCI-H1975. In words: Antiproliferative activity against human NCI-H1975 cells incubated for 72 hrs by SRB assay. Format: functional, cell-based. The settings on record: NCI-H1975, 72 h. A general note: In SRB staining, fixed cells bind dye roughly in proportion to their protein.
A short description of series [16]: Apparent volume of distribution in ICR mouse at 1 mg/kg, iv by LC-MS/MS method. Format: ADME, organism-based. The settings on record: in vivo, read-out: Vz.
Series [17] concerns the target Epidermal growth factor receptor (Homo sapiens, UniProt P00533). As to the kind of experiment: Inhibition of EGF-induced EGFR kinase domain phosphorylation in human NCI-H1975 cells at 1000 nM pre-incubated for 2 hrs followed by stimulation with EGF for 15 mins by Western blot method. Format: cell-based.

The structures appear in SMILES notation. Values after ≈ are worked out from the molar mass of the structure shown. Active and inactive are the calls of the source. The calls are words filed in the database; no cut-off is given here. A value given as a limit tells only on which side of the number the result lay.

Chain of Epidermal growth factor receptor (P00533 whole entry, the tested form may be a part): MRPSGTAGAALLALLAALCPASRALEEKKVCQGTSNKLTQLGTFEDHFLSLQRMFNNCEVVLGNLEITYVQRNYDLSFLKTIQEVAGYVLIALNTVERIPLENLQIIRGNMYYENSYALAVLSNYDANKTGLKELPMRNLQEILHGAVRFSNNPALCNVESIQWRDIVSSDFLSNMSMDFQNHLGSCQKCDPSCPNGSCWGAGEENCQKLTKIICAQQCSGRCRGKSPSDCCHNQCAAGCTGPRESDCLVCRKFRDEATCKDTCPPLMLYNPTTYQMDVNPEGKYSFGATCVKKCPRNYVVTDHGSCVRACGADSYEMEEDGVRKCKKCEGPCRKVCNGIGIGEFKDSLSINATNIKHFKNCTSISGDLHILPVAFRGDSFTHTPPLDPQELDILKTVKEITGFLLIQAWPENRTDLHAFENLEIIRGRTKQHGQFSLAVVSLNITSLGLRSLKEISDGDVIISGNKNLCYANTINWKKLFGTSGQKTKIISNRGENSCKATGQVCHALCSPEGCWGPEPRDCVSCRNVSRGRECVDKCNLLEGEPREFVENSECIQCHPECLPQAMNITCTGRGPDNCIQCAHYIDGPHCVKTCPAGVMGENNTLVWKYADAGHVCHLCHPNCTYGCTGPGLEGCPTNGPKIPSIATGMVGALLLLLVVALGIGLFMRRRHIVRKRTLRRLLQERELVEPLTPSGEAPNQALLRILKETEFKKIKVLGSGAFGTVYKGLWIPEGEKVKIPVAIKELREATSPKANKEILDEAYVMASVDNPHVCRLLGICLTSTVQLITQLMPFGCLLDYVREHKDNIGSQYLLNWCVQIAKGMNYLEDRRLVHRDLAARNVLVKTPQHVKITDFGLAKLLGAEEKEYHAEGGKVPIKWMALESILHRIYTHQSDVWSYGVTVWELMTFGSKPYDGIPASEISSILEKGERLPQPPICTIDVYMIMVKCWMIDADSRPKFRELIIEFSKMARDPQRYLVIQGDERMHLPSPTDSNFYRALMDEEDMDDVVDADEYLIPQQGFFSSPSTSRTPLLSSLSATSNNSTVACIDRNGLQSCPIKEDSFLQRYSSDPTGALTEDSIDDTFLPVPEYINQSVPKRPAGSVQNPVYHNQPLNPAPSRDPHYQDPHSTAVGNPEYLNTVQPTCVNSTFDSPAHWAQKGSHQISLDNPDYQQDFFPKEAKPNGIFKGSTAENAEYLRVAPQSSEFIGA
Chain of Receptor tyrosine-protein kinase erbB-4 (Homo sapiens) (Q15303 whole entry): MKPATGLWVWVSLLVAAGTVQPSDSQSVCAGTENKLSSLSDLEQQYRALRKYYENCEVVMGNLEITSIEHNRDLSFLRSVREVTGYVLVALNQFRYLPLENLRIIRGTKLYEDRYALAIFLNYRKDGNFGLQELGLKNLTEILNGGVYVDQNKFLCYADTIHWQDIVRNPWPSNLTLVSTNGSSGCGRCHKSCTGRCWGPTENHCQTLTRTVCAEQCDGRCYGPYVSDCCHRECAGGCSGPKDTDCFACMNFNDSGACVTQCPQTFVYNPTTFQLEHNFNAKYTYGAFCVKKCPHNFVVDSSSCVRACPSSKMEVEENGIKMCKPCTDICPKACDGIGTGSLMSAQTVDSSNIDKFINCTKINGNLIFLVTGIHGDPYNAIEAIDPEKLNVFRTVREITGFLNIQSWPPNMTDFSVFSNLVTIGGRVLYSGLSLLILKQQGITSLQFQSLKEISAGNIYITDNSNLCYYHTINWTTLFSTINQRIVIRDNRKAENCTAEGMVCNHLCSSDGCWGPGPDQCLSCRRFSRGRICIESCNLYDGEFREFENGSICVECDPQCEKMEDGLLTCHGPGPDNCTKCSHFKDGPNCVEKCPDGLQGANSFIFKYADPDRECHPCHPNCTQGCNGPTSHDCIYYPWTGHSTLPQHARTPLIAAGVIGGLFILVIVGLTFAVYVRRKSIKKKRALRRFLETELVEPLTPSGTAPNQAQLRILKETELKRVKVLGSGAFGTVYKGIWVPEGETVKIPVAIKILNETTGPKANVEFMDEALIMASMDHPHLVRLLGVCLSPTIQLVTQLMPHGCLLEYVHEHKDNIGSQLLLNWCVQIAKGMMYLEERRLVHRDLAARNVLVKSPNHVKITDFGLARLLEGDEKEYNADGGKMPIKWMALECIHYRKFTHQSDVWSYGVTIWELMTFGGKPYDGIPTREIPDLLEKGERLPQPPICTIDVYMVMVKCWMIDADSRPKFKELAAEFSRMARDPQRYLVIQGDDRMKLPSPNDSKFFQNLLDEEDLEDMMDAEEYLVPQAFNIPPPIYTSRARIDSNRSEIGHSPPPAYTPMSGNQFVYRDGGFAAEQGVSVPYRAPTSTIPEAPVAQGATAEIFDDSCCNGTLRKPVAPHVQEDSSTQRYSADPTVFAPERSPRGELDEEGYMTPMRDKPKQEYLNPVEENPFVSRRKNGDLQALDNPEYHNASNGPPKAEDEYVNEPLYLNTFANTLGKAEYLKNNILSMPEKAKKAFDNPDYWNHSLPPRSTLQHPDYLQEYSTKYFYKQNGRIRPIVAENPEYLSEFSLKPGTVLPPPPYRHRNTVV
Chain of Calcium/calmodulin-dependent protein kinase type 1 (Homo sapiens) (Q14012 whole entry, looked up): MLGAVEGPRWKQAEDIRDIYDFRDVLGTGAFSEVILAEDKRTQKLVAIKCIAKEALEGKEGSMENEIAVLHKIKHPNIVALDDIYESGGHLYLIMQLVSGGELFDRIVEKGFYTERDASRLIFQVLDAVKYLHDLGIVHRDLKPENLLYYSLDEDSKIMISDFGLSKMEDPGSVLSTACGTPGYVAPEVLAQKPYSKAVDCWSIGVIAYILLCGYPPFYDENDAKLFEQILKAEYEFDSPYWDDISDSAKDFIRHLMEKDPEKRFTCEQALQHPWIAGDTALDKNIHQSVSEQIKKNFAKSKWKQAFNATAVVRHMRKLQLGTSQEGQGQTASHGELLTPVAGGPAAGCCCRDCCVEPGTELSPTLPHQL

Usually half-life stands for the time in which the quantity being followed falls by half. As usually defined, the bioavailability is dose-corrected exposure relative to a reference, in per cent. Read a high bioavailability as much systemic uptake. A word on the pKa: it is the negative logarithm of the acid dissociation constant. Low values mean a group that gives up its proton readily, high ones a group that holds its proton tightly. Usually IC50 stands for the concentration needed to halve the response being measured. For orientation: AUC(0-t) means exposure summed from dosing to a finite time, without extrapolation to infinity. Read a low AUC(0-t) as less exposure. In the case of `C=CC(=O)Nc1cccc(-n2c(=O)c(=O)n(C(C)C)c3cnc(Nc4ccc(N5CCN(C)CC5)cc4OC)nc32)c1`, the results for the half-life in series [1] and in [7] were 66 min and 48 min, respectively. In series [2], this compound yielded a bioavailability of 48%. Also, the Activity was < 1% in series [3]; < 1% in series [4]; “Non-Toxic” in series [6]; < 1% in [12]; < 1% in [13]. Also, the pKa in series [5] came to 7.7. Besides, the values for the inhibition in vivo at 50 mg/kg with A-431 [8] and with NCI-H1975 [14] were 50% and 52%, respectively. In addition, the IC50 came out at 7.77 µM in the series with A-431 [9] and 0.018 µM with NCI-H1975 [15]. Besides, in the series with Mus musculus, the inhibition entry is “Active”. Besides, the AUC(0-t) in series [10] came to 673 ng·h/mL. Besides, the solubility thermodynamic in series [11] came out at 41 µg/mL (≈ 71.8 µM). Further, the Vd in [16] stood at 8.01 L/kg. Besides, the inhibition entry in [17] is “inactive”.
